Patent publication US20170348330A1, “ANTIVIRAL COMPOUND AND ANALOGUES THEREOF FOR TREATMENT OR PREVENTION OF FLAVIVIRUS DENGUE/ZIKA INFECTIONS” (Canopus BioPharma Incorporated, priority 2016, published 2017)
“And” between values parts separate entries of the source, which are not always exact repeats. Equal entries are not always repeated. Where two headings read alike, the source gives them in different places.

Experiments:
[1] = cited from earlier work
[2] = system: Zika virus; test: ZIKA anti-viral in-vitro testing in VERO cells (Naftol blue-black staining, absorbance at 450 nm); details: for Absorbance at 450 nm: Zika MOI 0.1, VERO cells, 72 hours, threshold 0.382, replicate wells
Procedure: ZIKA Anti-Viral In-Vitro Testing and Antiviral Assay Report:
Controls: Medium with DMSO at 1% start concentration; Zika virus for infection at 0.1 MOI; VERO cells on VP medium (serum-free).
Procedure: Antivirals were diluted as information provided to stock concentrations of 10 mM in 100% DMSO.
• 1—VERO cells in VP were inoculated in 200 μL/well at 5.0×10^4 cells/mL in 96-well plates. • 2—Incubated at 37° C. for 48 hours. • 3—With 80% confluence the test was performed as follows: culture medium was changed for 150 μL of fresh VP in columns 2 to 10. Antivirals diluted at 100 μM in VP medium were placed in the column 1 (300 μL). Serial dilutions from 1 to 10 were performed by passing 150 μL of medium (1:2). Plates were incubated at 37° C. for 2 hours. Zika virus diluted in VP medium to the final infection ration desired of MOI 0.1 in 100 μL of VP was added to wells. • 4—Plates were incubated for 72 hours and checked each 24 hours for cytotoxicity or cytopathic effect. • 5—Plates were washed and stained with Naftol blue-black. Absorbance was measured at 450 nm.
DMSO cytotoxicity Antiviral cytotoxicity Primary Threshold for virus inhibition. Absorbance above 0.382

[3] = laboratory animals; cited from earlier work
[4] = Eplerenone PK and concentrations reported in humans; type: in vivo, human; details: for Cmax: human, plasma, po
Excerpt: Clinical data: Eplerenone PK and concentrations reported in humans:
Referring now to FIG. 5 and FIG. 6, Eplerenone Cmax concentrations achieved in normal subjects is illustrated, as well as subjects with varying degrees of renal impairment after single and multiple doses of Eplerenone given orally.
The charts illustrate the feasibility of achieving anti-viral Cmax concentrations using Eplerenone in human and show Eplerenone plasma concentration vs. time curves.
In multiple dose studies, it is shown that Eplerenone steady state concentrations may be reached within 4 days. […] This preferred embodiment may be adjusted according to the specific conditions of the human subject.

[5] = cited from earlier work; for mean Cmax concentrations: healthy subjects
[6] = system: dengue; details: mouse model; cited from earlier work
[7] = system: dengue; details: cited from earlier work
[8] = system: dengue; details: by inhibiting the dengue 2′-O-methyltransferase NS5 domain; cited from earlier work

| SMILES | Absorbance at 450 nm ([2]; 0.19 μM) | Absorbance at 450 nm ([2]; 0.78 μM) | Absorbance at 450 nm ([2]; 1.56 μM) | Absorbance at 450 nm ([2]; 3.12 μM) | Absorbance at 450 nm ([2]; 6.25 μM) | Absorbance at 450 nm ([2]; 12.5 μM) | Absorbance at 450 nm ([2]; 25 μM) | Absorbance at 450 nm ([2]; 50 μM) | other results |
| --- | --- | --- | --- | --- | --- | --- | --- | --- | --- |
| COC(=O)[C@@H]1CC2=CC(=O)CC[C@]2(C)[C@@]23O[C@@H]2C[C@@]2(C)[C@@H](CC[C@@]24CCC(=O)O4)[C@H]13 [Eplerenone, pregn-4-ene-7,21-dicarboxylic acid, 9,11-epoxy-17-hydroxy-3-oxo, γ-lactone, methyl ester (7α, 11α, 17α)] | 0.449 and 0.441 and 0.468 and 0.469 | 0.433 and 0.434 and 0.432 and 0.428 | 0.369 and 0.466 and 0.453 and 0.443 | 0.4 and 0.423 and 0.453 and 0.441 | 0.376 and 0.448 and 0.411 and 0.397 | 0.334 and 0.333 and 0.373 and 0.341 | 0.29 and 0.288 and 0.291 and 0.271 | 0.217 and 0.238 and 0.209 and 0.182 | Pregnancy category ([1]; animal reproduction studies failed to demonstrate a risk to the fetus): category B; Tolerability ([1]; human): generally well tolerated; In-vitro concentrations showing anti-viral activity against Zika virus ([2]; columns 6-10 of the report, comparable to Butantan control): 0.19 to 3.12 µM; Dose with noticeable risk of foetal abnormalities [3]: over 1000 times the recommended daily dose; Cmax relative to in-vitro concentration of column#9 ([…]) ([4]; Cmax […] after 100 mg oral vs in-vitro […]): 10 times; Cmax ([4]; 50 mg, healthy subjects, single dose of 50 mg orally, read-out: mean Cmax concentrations, equivalent): 2.8 µM; Cmax ([4]; 100 mg, healthy subjects, dose 100 mg orally, read-out: mean Cmax concentrations, equivalent): 4.1 µM; Cmax ([4]; 100 mg, therapeutic doses of oral Eplerenone (100 mg), read-out: Peak plasma concentrations (Cmax), equivalent): ≤ 4.1 µM; mean Cmax concentrations ([5]; dose 100 mg orally): 1.72 µg/mL; mean Cmax concentrations ([5]; single dose of 50 mg orally): 1.173 µg/mL; Accumulation: steady state Cmax compared with single dose administration ([5]; multiple dose studies): no significant accumulation; Time to reach steady state concentrations ([5]; multiple dose studies): ≤ 4 days; Peak plasma concentrations (Cmax) ([5]; therapeutic doses of oral Eplerenone (100 mg), human): up to 1720 ng/ml |
| COCCOC(=O)C1=C(C)NC(C)=C(C(=O)OC(C)C)C1c1cccc([N+](=O)[O-])c1 (centres unmarked) [Nimodipine] | 0.206 and 0.321 and 0.378 and 0.354 | 0.142 and 0.293 and 0.459 and 0.396 | 0.202 and 0.387 and 0.46 and 0.397 | 0.235 and 0.468 and 0.451 and 0.415 | 0.263 and 0.363 and 0.451 and 0.395 | 0.276 and 0.282 and 0.347 and 0.305 | 0.21 and 0.224 and 0.271 and 0.217 | 0.091 and 0.113 and 0.117 and 0.092 |  |
| NC(=O)c1ncn([C@@H]2O[C@H](CO)[C@@H](O)[C@H]2O)n1 [Ribavirin] |  |  |  |  |  |  |  |  | Protection against dengue [6]: did not show protection; Adverse effects in dengue animal models ([7]; mouse model or rhesus monkey model (species not specified)): induced anemia and thrombocytosis; Protection against dengue ([7]; rhesus monkey model): did not show protection; Activity against dengue in tissue culture [8]: works against dengue in tissue culture |
| CC(=O)S[C@@H]1CC2=CC(=O)CC[C@]2(C)[C@H]2CC[C@@]3(C)[C@@H](CC[C@@]34CCC(=O)O4)[C@H]12 [Spironolactone] | 0.22 and 0.2 and 0.183 and 0.095 | 0.328 and 0.23 and 0.168 and 0.063 | 0.328 and 0.318 and 0.2 and 0.069 | 0.359 and 0.317 and 0.223 and 0.06 | 0.358 and 0.307 and 0.263 and 0.097 | 0.338 and 0.342 and 0.234 and 0.092 | 0.255 and 0.257 and 0.214 and 0.076 | 0.079 and 0.082 and 0.074 and 0.047 |  |
